Columns and labels:
[1] = system: REH, Ramos, CEM, Jurkat, HL-60, and THP-1; experiment: [3H]thymidine incorporation, cell line panel (FIG. 17); type: cell-based; details: 5 μM pV(phen), 5 days
Description: Similar results are shown in FIG. 17 for the cell lines REH, Ramos, CEM, Jurkat, HL-60, and THP-1. Cells were treated 5 days with the amount of inhibitor indicated and [^3 H]-thymidine incorporation was then measured to determine proliferation. The percent inhibition was calculated relative to untreated controls. Results are shown for three concentrations of BMLOV (5 μM, 10 μM, and 25 μM and 5 μM of pV(phen)).

HL-60 = experiment: Clonogenic assay in methylcellulose; type: cell-based, human; details: for colonies formed: seven days
Description: (§1) The selective cytotoxicity of BMLOV was examined in clonogenic assays. Cells were grown in methylcellulose media and the number of colonies formed after seven days of treatment with various doses of the drug were determined. The clonogenic assays were performed with six replicates for each treatment as described [F. M. Uckun et al., J. Exp. Med. 163:347-368 (1986); F. M. Uckun & J. A. Ledbetter, Proc. Natl. Acad. Sci. USA 85:8603-8607 (1988)). The data is given plus/minus the standard error of the mean.
(§2) For assays of cellular proliferation, cells were grown five days in the presence of the indicated concentrations of BMLOV, pulsed 6 hr with [^3 H]-thymidine (New England Nuclear, Boston, Mass.), and counted in a liquid scintillation counter. Human peripheral blood lymphocytes (PBL) from normal volunteers were isolated from lymphocyte separation medium (Litton Bionetics, Kensington, Md.) by density gradient centrifugation. Monocytes were depleted from PBL by two rounds of plastic absorption for 30 minutes at 37° C. B cells were enriched for by negative selection using complement plus monoclonal antibodies to CD2, CD3, CD4, and CD8 for complement depletion. Clonogenic assays of colony formation in methylcellulose medium were performed as previously described (F. M. Uckun et al. (1992), supra).

THP-1 = experiment: Clonogenic assay in methylcellulose; type: cell-based, human; details: for colonies formed: seven days
Description: as §1, §2

Ramos = experiment: Clonogenic assay in methylcellulose; type: cell-based, human; details: Ramos; for colonies formed: seven days
Description: as §1, §2

Raji = experiment: Clonogenic assay in methylcellulose; type: cell-based, human; details: for colonies formed: seven days
Description: as §1, §2

Ramos B cells = experiment: Confocal laser scanning microscopy; type: cell-based, human; details: 25 μm BMLOV, 48 h
Description: Cells were fixed with 3.7% formaldehyde in PBS and permeabilized by treatment with 0.1% saponin. […] The cells were then washed three times in staining buffer, and stained with fluorescein-labeled goat anti-rabbit antibody (Molecular Probes). After washing three times in staining buffer, cells were stained for DNA with 2 μg/ml propidium iodide. A Leica GmbH confocal laser scanning microscope (CLSM) (Leica Laser Technic, Heidelberg, Germany) equipped with a krypton/argon laser (Omnichrome, Chino, Calif.), 2 double dichroic beam splitters with λs1 /λs2 of 488/647 and 488/568 nm, 1 neutral density beam splitter (Lys Optics, Denmark), the Leica CLSM software accessories, and the Leica true color display graphics package was used to produce the confocal images.
In addition to DNA fragmentation, apoptotic lymphocytes display condensation of chromatin, loss of DNA and fragmentation of nuclei that can be detected by confocal laser scanning microscopy (CLSM) of propidium iodide stained cells (R. Sgonc & G. Wick, Int. Arch. Allergy Immunol. 105:327-332 (1994)). Therefore, CLSM was used to examine Ramos cells stained for DNA with propidium iodide and stained for phosphotyrosine (FIG. 29). In the experiments shown in FIG. 29, Ramos B cells were fixed, permeabilized and stained with propidium iodide for DNA (red) and with anti-phosphotyrosine antibodies (green) as described above. […]

[2] = system: normal peripheral B cells; experiment: Normal peripheral B cell [3H]-thymidine incorporation; type: cell-based, human
Description: In the experiment reported in Table 4, monoclonal antibodies to CD20 and CD40 were used to stimulate proliferation. Peripheral B cells were isolated from two healthy human volunteers. The cells were stimulated as listed in Table 4 and the effects of various doses of BMLOV on proliferation, as measured by [^3 H]-thymidine incorporation, were determined. BMLOV was able to inhibit proliferation induced by CD20, CD40, IL-4 and PMA in the various combinations tested. The cells from donor 2 were more sensitive, indicating some variation among individuals in their sensitivity to the drug.
Stimulation of CD20 was via monoclonal antibody 1F5 and stimulation of CD40 was via monoclonal antibody G28-5.
as §2

[Na+].[O]=[V-]12([O][O]1)[O][O]2.c1cnc2c(c1)ccc1cccnc12 [pV(phen), sodium (1,10-phenanthroline) oxodiperoxovanadium (V)]
inhibition of proliferation, in words [1]: inhibits all cell types studied

Cc1occc(=O)c1[O-].Cc1occc(=O)c1[O-].[O]=[V+2] [BMLOV, Bis(maltolato)oxovanadium (IV)]
percentage of inhibition of clonogenic growth (HL-60; 1 μM BMLOV): 99.4%
colonies formed (HL-60; 1 μM BMLOV): 31 ± 8 colonies per 10^4 cells
percentage of inhibition of clonogenic growth (HL-60; 5 μM BMLOV): 99.4%
colonies formed (HL-60; 5 μM BMLOV): 31 ± 8 colonies per 10^4 cells
percentage of inhibition of clonogenic growth (HL-60; 10 μM BMLOV): 99.7%
colonies formed (HL-60; 10 μM BMLOV): 15 ± 4 colonies per 10^4 cells
percentage of inhibition of clonogenic growth (THP-1; 1 μM BMLOV): 75.0%
colonies formed (THP-1; 1 μM BMLOV): 1613 ± 235 colonies per 10^4 cells
percentage of inhibition of clonogenic growth (THP-1; 5 μM BMLOV): 98.0%
colonies formed (THP-1; 5 μM BMLOV): 127 ± 35 colonies per 10^4 cells
percentage of inhibition of clonogenic growth (THP-1; 10 μM BMLOV): 98%
colonies formed (THP-1; 10 μM BMLOV): 127 ± 35 colonies per 10^4 cells
percentage of inhibition of clonogenic growth (Ramos; 1 μM BMLOV): 95.6%
colonies formed (Ramos; 1 μM BMLOV): 179 ± 33 colonies per 10^4 cells
percentage of inhibition of clonogenic growth (Ramos; 5 μM BMLOV): 99.8%
colonies formed (Ramos; 5 μM BMLOV): 7 ± 2 colonies per 10^4 cells
percentage of inhibition of clonogenic growth (Ramos; 10 μM BMLOV): greater than 99.9%
colonies formed (Ramos; 10 μM BMLOV): 0 colonies per 10^4 cells
percentage of inhibition of clonogenic growth (Raji; 1 μM BMLOV): 60.3%
colonies formed (Raji; 1 μM BMLOV): 1291 ± 283 colonies per 10^4 cells
percentage of inhibition of clonogenic growth (Raji; 5 μM BMLOV): 99.9%
colonies formed (Raji; 5 μM BMLOV): 4 ± 0.6 colonies per 10^4 cells
colonies formed (Raji; 10 μM BMLOV): 3 ± 0.8 colonies per 10^4 cells
nuclear morphology by CLSM (Ramos B cells): extensive loss of DNA, condensation of chromatin
[3H]cpm incorporation ([2]; Donor #1, CD20 + CD40, 1 μM BMLOV): 3619 cpm
[3H]cpm incorporation ([2]; Donor #1, CD20 + CD40, 5 μM BMLOV): 3644 cpm
[3H]cpm incorporation ([2]; Donor #1, CD20 + CD40, 10 μM BMLOV): 3422 cpm
[3H]cpm incorporation ([2]; Donor #1, CD20 + CD40, 25 μM BMLOV): 2432 cpm
[3H]cpm incorporation ([2]; Donor #1, CD40 + IL4, 1 μM BMLOV): 31966 cpm
[3H]cpm incorporation ([2]; Donor #1, CD40 + IL4, 5 μM BMLOV): 33845 cpm
[3H]cpm incorporation ([2]; Donor #1, CD40 + IL4, 10 μM BMLOV): 31637 cpm
[3H]cpm incorporation ([2]; Donor #1, CD40 + IL4, 25 μM BMLOV): 24933 cpm
[3H]cpm incorporation ([2]; Donor #1, PMA + CD40, 1 μM BMLOV): 62643 cpm
[3H]cpm incorporation ([2]; Donor #1, PMA + CD40, 5 μM BMLOV): 58418 cpm
[3H]cpm incorporation ([2]; Donor #1, PMA + CD40, 10 μM BMLOV): 45330 cpm
[3H]cpm incorporation ([2]; Donor #1, PMA + CD40, 25 μM BMLOV): 25536 cpm
[3H]cpm incorporation ([2]; Donor #1, PMA + IL4, 1 μM BMLOV): 61415 cpm
[3H]cpm incorporation ([2]; Donor #1, PMA + IL4, 5 μM BMLOV): 48724 cpm
[3H]cpm incorporation ([2]; Donor #1, PMA + IL4, 10 μM BMLOV): 45278 cpm
[3H]cpm incorporation ([2]; Donor #1, PMA + IL4, 25 μM BMLOV): 14277 cpm
[3H]cpm incorporation ([2]; Donor #2, CD20 + CD40, 1 μM BMLOV): 4593 cpm
[3H]cpm incorporation ([2]; Donor #2, CD20 + CD40, 5 μM BMLOV): 5681 cpm
[3H]cpm incorporation ([2]; Donor #2, CD20 + CD40, 10 μM BMLOV): 5269 cpm
[3H]cpm incorporation ([2]; Donor #2, CD20 + CD40, 25 μM BMLOV): 856 cpm
[3H]cpm incorporation ([2]; Donor #2, CD40 + IL4, 1 μM BMLOV): 16597 cpm
[3H]cpm incorporation ([2]; Donor #2, CD40 + IL4, 5 μM BMLOV): 18824 cpm
[3H]cpm incorporation ([2]; Donor #2, CD40 + IL4, 10 μM BMLOV): 12662 cpm
[3H]cpm incorporation ([2]; Donor #2, CD40 + IL4, 25 μM BMLOV): 6013 cpm
[3H]cpm incorporation ([2]; Donor #2, PMA + CD40, 1 μM BMLOV): 49102 cpm
[3H]cpm incorporation ([2]; Donor #2, PMA + CD40, 5 μM BMLOV): 47624 cpm
[3H]cpm incorporation ([2]; Donor #2, PMA + CD40, 10 μM BMLOV): 29024 cpm
[3H]cpm incorporation ([2]; Donor #2, PMA + CD40, 25 μM BMLOV): 15671 cpm
[3H]cpm incorporation ([2]; Donor #2, PMA + IL4, 1 μM BMLOV): 53642 cpm
[3H]cpm incorporation ([2]; Donor #2, PMA + IL4, 5 μM BMLOV): 41892 cpm
[3H]cpm incorporation ([2]; Donor #2, PMA + IL4, 10 μM BMLOV): 20313 cpm
[3H]cpm incorporation ([2]; Donor #2, PMA + IL4, 25 μM BMLOV): 2730 cpm

— patent publication US5877210A, “Phosphotyrosine phosphatase inhibitors or phosphotyrosine kinase activators for controlling cellular proliferation” (priority 1995, dated 1999)
